Experimental data: patent US5571521A (priority 1995, dated 1996)
Like-named read-outs stand apart in the source and are kept apart here.

Legend:
[1] = tested on: Candida Albicans; test: Inhibition of microorganism growth in Miller-Hinton broth (Minimal Inhibitory Concentration); format: cell-based; conditions: Table 1, evaluated at 18 hours
Method: (§1) For each of the microorganisms listed below a culture was grown in Miller-Hinton broth (24 hour culture), and then diluted at a 1:100 ratio. This diluted culture was then grown for an additional two hours, after which the silver diphenyl hydantoin was added. […]

[2] = tested on: Enterococcus (Group D Strep); test: as above; format: cell-based; conditions: Table 1; 20 micrograms/ml; evaluated at 18 hours
Method: as §1

[3] = tested on: Klebsiella; test: as above; format: cell-based; conditions: Table 1, evaluated at 18 hours
Method: as §1

[4] = tested on: Pseudomonas aeruginosa; test: as above; format: cell-based; conditions: Table 1, evaluated at 18 hours
Method: as §1

[5] = tested on: Staphloccoccus aereus; test: as above; format: cell-based; conditions: Table 1, evaluated at 18 hours
Method: as §1

[6] = tested on: Seratia; test: as above; format: cell-based, Serratia M.; conditions: Table 1, evaluated at 18 hours
Method: as §1

[7] = tested on: Plasmopara viticola; test: Control of grape downy mildew on plants; format: in vivo; conditions: for Percent Disease Control, Preventive: inoculated 24 hours after application; for Percent Disease Control, Curative: inoculated 24 hours before application
[8] = tested on: Phytophthora infestans; format: in vivo
[9] = tested on: Venturia inaequalis; test: Control of apple scab on plants; format: in vivo; conditions: inoculated 24 hours after application
[10] = tested on: Cercospora arachidicola; test: Control of peanut leafspot on plants; format: in vivo; conditions: for Percent Disease Control, Preventive: inoculated 24 hours after application; for Percent Disease Control, Curative: inoculated 24 hours before application
[11] = tested on: pure cultures of organisms; test: Antibacterial action in pure cultures on blood agar plates; format: cell-based
[12] = tested on: host tissue; test: Toxicity toward host tissue

With “Silver Ammonium Diphenyl Hydantoin [Silver ammonium phenytoin]” the “inhibition (Minimal Inhibitory Concentration table)” value (“inhibition” for short) ([1]; 20 micrograms/ml) was “+”, the “inhibition” value ([1]; 40 micrograms/ml) was “+” and the “inhibition” value [2] was “+”. The “inhibition” value ([3]; 1 microgram/ml) was “+”, the “inhibition” value ([3]; 10 micrograms/ml) was “+” and the “inhibition” value ([3]; 20 micrograms/ml) was “+”. For the same substance, the “inhibition” value ([4]; 20 micrograms/ml) was “+”, the “inhibition” value ([4]; 40 micrograms/ml) was “+” and the “inhibition” value ([5]; 20 micrograms/ml) was “+”. For the same substance, the “inhibition” value ([5]; 40 micrograms/ml) was “+”, the “inhibition” value ([6]; 10 micrograms/ml) was “+” and the “inhibition” value ([6]; 20 micrograms/ml) was “+”. For the same substance, the “inhibition” value ([6]; 40 micrograms/ml) was “+”, the “Percent Disease Control, Preventive” value ([7]; 5 ppm) was 24% and the “Percent Disease Control, Curative” value ([7]; 5 ppm) was 0%. For the same substance, the “Percent Disease Control, Preventive” value ([7]; 20 ppm) was 49%, the “Percent Disease Control, Curative” value ([7]; 20 ppm) was 0% and the “Percent Disease Control, Preventive” value ([7]; 100 ppm) was 87%. For the same substance, the “Percent Disease Control, Curative” value ([7]; 100 ppm) was 0%, the “Percent Disease Control” value ([8]; 5 ppm) was 17% and the “Percent Disease Control” value ([8]; 20 ppm) was 95%. The “Percent Disease Control” value ([8]; 100 ppm) was 98%, the “Percent Disease Control, Preventive” value ([9]; 5 ppm) was 17% and the “Percent Disease Control, Preventive” value ([9]; 20 ppm) was 95%. The “Percent Disease Control, Preventive” value ([9]; 100 ppm) was 98%, the “Percent Disease Control, Preventive” value ([10]; 5 ppm) was 16% and the “Percent Disease Control, Curative” value ([10]; 5 ppm) was 0%. The “Percent Disease Control, Curative” value ([10]; 20 ppm) was 0%, the “Percent Disease Control, Preventive” value ([10]; 100 ppm) was 78% and the “Percent Disease Control, Curative” value ([10]; 100 ppm) was 60%. For the same substance, the Antibacterial action [11] was “Antibacterial action, was also demonstrated” and the “toxicity toward host tissue” value [12] was “low toxicity toward host tissue”.
